Measured values from patent publication US11590139B2, “Substituted aminopurine compounds, compositions thereof, and methods of treatment therewith” (Signal Pharmaceuticals, LLC, priority 2014, dated 2023).

system: Lox-IMVI melanoma cell line; test: Lox-IMVI anti-proliferative assay (growth inhibition, Cell Titer-Glo); type: cell-based, human; conditions: Homo sapiens; IC50 activity level in the cell-based Lox-IMVI anti-proliferative assay; read-out: Activity
How it was run: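 Viability read by ATP luminescence (Cell Titer-Glo) at t0 and after 72 h at 37 °C, 5% CO2, with normalisation to DMSO-treated cells. Compound tested at 0.5 nM–10 μM in 3-fold, 10-point series (0.2% DMSO final) on Lox-IMVI in RPMI+10% FBS; IC50 by 4-parameter sigmoidal fit.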

`CC(C)(C)OC(=O)N1CCC[C@@H](Nc2ncc3nc(Nc4c(F)cccc4F)n([C@H]4CC[C@@H](C(N)=O)CC4)c3n2)C1` [Example 159, (R)-tert-butyl 3-(9-((1s,4S)-4-carbamoylcyclohexyl)-8-(2,6-difluorophenylamino)-9H-purin-2-ylamino)piperidine-1-carboxylate] and `CC(C)(C)OC(=O)N1CCC[C@@H](Nc2ncc3nc(Nc4c(F)cc(Cl)cc4F)n([C@H]4CC[C@@H](C(N)=O)CC4)c3n2)C1` [Example 162, (R)-tert-butyl 3-(9-((1s,4S)-4-carbamoylcyclohexyl)-8-(4-chloro-2,6-difluorophenylamino)-9H-purin-2-ylamino)piperidine-1-carboxylate] cannot be ordered by IC50: greater than 1000 nM for the first, greater than 1000 nM for the second.

`CC(C)(C)OC(=O)N1CCC[C@@H](Nc2ncc3nc(Nc4c(Cl)cccc4Cl)n([C@H]4CC[C@@H](C(N)=O)CC4)c3n2)C1` [Example 160, (R)-tert-butyl 3-(9-((1s,4S)-4-carbamoylcyclohexyl)-8-(2,6-dichlorophenylamino)-9H-purin-2-ylamino)piperidine-1-carboxylate] and `CC(C)(C)OC(=O)N1CCC[C@@H](Nc2ncc3nc(Nc4c(Cl)cc(Cl)cc4Cl)n([C@H]4CC[C@@H](C(N)=O)CC4)c3n2)C1` [Example 163, (R)-tert-butyl 3-(9-((1s,4S)-4-carbamoylcyclohexyl)-8-(2,4,6-trichlorophenylamino)-9H-purin-2-ylamino)piperidine-1-carboxylate] cannot be ordered by IC50: greater than 1000 nM for the first, greater than 1000 nM for the second.

`CC(C)(C)OC(=O)N1CCC[C@@H](Nc2ncc3nc(Nc4c(F)cc(F)cc4Cl)n([C@H]4CC[C@@H](C(N)=O)CC4)c3n2)C1` [Example 161, (R)-tert-butyl 3-(9-((1s,4S)-4-carbamoylcyclohexyl)-8-(2-chloro-4,6-fluorophenylamino)-9H-purin-2-ylamino)piperidine-1-carboxylate] and `NC(=O)[C@H]1CC[C@@H](n2c(Nc3c(F)cc(F)cc3Cl)nc3cnc(N[C@@H]4CCCOC4)nc32)CC1` [Example 187, (1S,4s)-4-(8-(2-chloro-4,6-difluorophenylamino)-2-((R)-tetrahydro-2H-pyran-3-ylamino)-9H-purin-9-yl)cyclohexanecarboxamide] cannot be ordered by IC50: greater than 1000 nM for the first, greater than 1000 nM for the second.

Compared with `C[C@@H](CO)Nc1ncc2nc(Nc3c(F)cc(F)cc3F)n([C@H]3CC[C@@H](C(N)=O)CC3)c2n1` [Example 164, (1R,4s)-4-(2-((S)-1-hydroxypropan-2-ylamino)-8-(2,4,6-trifluorophenylamino)-9H-purin-9-yl)cyclohexanecarboxamide], `C[C@@H](CO)Nc1ncc2nc(Nc3c(F)cc(Cl)cc3F)n([C@H]3CC[C@@H](C(N)=O)CC3)c2n1` [Example 169, (1R,4s)-4-(8-(4-chloro-2,6-difluorophenylamino)-2-((S)-1-hydroxypropan-2-ylamino)-9H-purin-9-yl)cyclohexanecarboxamide] is lower in IC50: greater than 1000 nM for the first, 500 to 1000 nM for the second. The second is the more potent here.

Compared with `C[C@@H](CO)Nc1ncc2nc(Nc3c(Cl)cc(Cl)cc3Cl)n([C@H]3CC[C@@H](C(N)=O)CC3)c2n1` [Example 165, (1R,4s)-4-(2-((S)-1-hydroxypropan-2-ylamino)-8-(2,4,6-trichlorophenylamino)-9H-purin-9-yl)cyclohexanecarboxamide], `C[C@@H](CO)Nc1ncc2nc(Nc3c(Cl)cc(F)cc3Cl)n([C@H]3CC[C@@H](C(N)=O)CC3)c2n1` [Example 166, (1R,4s)-4-(8-(2,6-dichloro-4-fluorophenylamino)-2-((S)-1-hydroxypropan-2-ylamino)-9H-purin-9-yl)cyclohexanecarboxamide] is higher in IC50: 250 to 500 nM for the first, 500 to 1000 nM for the second. The first is the more potent here.

`C[C@@H](CO)Nc1ncc2nc(Nc3c(F)cccc3F)n([C@H]3CC[C@@H](C(N)=O)CC3)c2n1` [Example 167, (1R,4s)-4-(8-(2,6-difluorophenylamino)-2-((S)-1 hydroxypropan-2-ylamino)-9H-purin-9-yl)cyclohexanecarboxamide] and `C[C@@H](CO)Nc1ncc2nc(Nc3c(Cl)cccc3Cl)n([C@H]3CC[C@@H](C(N)=O)CC3)c2n1` [Example 168, (1R,4s)-4-(8-(2,6-dichlorophenylamino)-2-((S)-1 hydroxypropan-2-ylamino)-9H-purin-9-yl)cyclohexanecarboxamide] cannot be ordered by IC50: greater than 1000 nM for the first, greater than 1000 nM for the second.

`C[C@@H](CO)Nc1ncc2nc(Nc3ccc(Cl)cc3Cl)n([C@H]3CC[C@@H](C(N)=O)CC3)c2n1` [Example 170, (1R,4s)-4-(8-(2,4-dichlorophenylamino)-2-((S)-1-hydroxypropan-2-ylamino)-9H-purin-9-yl)cyclohexanecarboxamide] and `C[C@@H](CO)Nc1ncc2nc(Nc3cc(Cl)ccc3F)n([C@H]3CC[C@@H](C(N)=O)CC3)c2n1` [Example 171, (1R,4s)-4-(8-(5-chloro-2-fluorophenylamino)-2-((S)-1-hydroxypropan-2-ylamino)-9H-purin-9-yl)cyclohexanecarboxamide] cannot be ordered by IC50: greater than 1000 nM for the first, greater than 1000 nM for the second.

`C[C@@H](CO)Nc1ncc2nc(Nc3cccc(Cl)c3F)n([C@H]3CC[C@@H](C(N)=O)CC3)c2n1` [Example 172, (1R,4s)-4-(8-(3-chloro-2-fluorophenylamino)-2-((S)-1-hydroxypropan-2-ylamino)-9H-purin-9-yl)cyclohexanecarboxamide] and `NC(=O)[C@H]1CC[C@@H](n2c(Nc3c(Cl)cccc3Cl)nc3cnc(NC4COCC4O)nc32)CC1` (some centres unmarked) [Example 180, (1s,4s)-4-(8-(2,6-dichlorophenylamino)-2-(4-hydroxytetrahydrofuran-3-ylamino)-9H-purin-9-yl)cyclohexanecarboxamide] cannot be ordered by IC50: greater than 1000 nM for the first, greater than 1000 nM for the second.

`NC(=O)[C@H]1CC[C@@H](n2c(Nc3c(F)cccc3F)nc3cnc(NC4CC5(COC5)C4)nc32)CC1` [Example 173, (1s,4s)-4-(2-(2-oxaspiro[3.3]heptan-6-ylamino)-8-(2,6-difluorophenylamino)-9H-purin-9-yl)cyclohexanecarboxamide] and `NC(=O)[C@H]1CC[C@@H](n2c(Nc3c(F)cc(Cl)cc3F)nc3cnc(NC4CC5(COC5)C4)nc32)CC1` [Example 176, (1s,4s)-4-(2-(2-oxaspiro[3.3]heptan-6-ylamino)-8-(4-chloro-2,6-difluorophenylamino)-9H-purin-9-yl)cyclohexanecarboxamide] cannot be ordered by IC50: greater than 1000 nM for the first, greater than 1000 nM for the second.

First: NC(=O)[C@H]1CC[C@@H](n2c(Nc3c(Cl)cccc3Cl)nc3cnc(NC4CC5(COC5)C4)nc32)CC1 [Example 174, (1s,4s)-4-(2-(2-oxaspiro[3.3]heptan-6-ylamino)-8-(2,6-dichlorophenylamino)-9H-purin-9-yl)cyclohexanecarboxamide]
Second: NC(=O)[C@H]1CC[C@@H](n2c(Nc3c(Cl)cc(Cl)cc3Cl)nc3cnc(NC4CC5(COC5)C4)nc32)CC1 [Example 177, (1s,4s)-4-(2-(2-oxaspiro[3.3]heptan-6-ylamino)-8-(2,4,6-trichlorophenylamino)-9H-purin-9-yl)cyclohexanecarboxamide]
The IC50 of the first is higher: greater than 1000 nM for the first, 250 to 500 nM for the second. The second is the more potent here.

First: NC(=O)[C@H]1CC[C@@H](n2c(Nc3c(F)cc(F)cc3Cl)nc3cnc(NC4CC5(COC5)C4)nc32)CC1 [Example 175, (1s,4s)-4-(2-(2-oxaspiro[3.3]heptan-6-ylamino)-8-(2-chloro-4,6-difluorophenylamino)-9H-purin-9-yl)cyclohexanecarboxamide]
Second: NC(=O)[C@H]1CC[C@@H](n2c(Nc3c(F)cc(F)cc3Cl)nc3cnc(NC4CCC(F)(F)CC4)nc32)CC1 [Example 185, (1s,4s)-4-(8-(2-chloro-4,6-difluorophenylamino)-2-(4,4-difluorocyclohexylamino)-9H-purin-9-yl)cyclohexanecarboxamide]
The IC50 of the first is higher: 500 to 1000 nM for the first, less than 250 nM for the second. The second is the more potent here.

`NC(=O)[C@H]1CC[C@@H](n2c(Nc3c(F)cc(F)cc3F)nc3cnc(NC4COCC4O)nc32)CC1` (some centres unmarked) [Example 178, (1s,4s)-4-(2-(4-hydroxytetrahydrofuran-3-ylamino)-8-(2,4,6-trifluorophenylamino)-9H-purin-9-yl)cyclohexanecarboxamide] and `NC(=O)[C@H]1CC[C@@H](n2c(Nc3c(F)cc(F)cc3Cl)nc3cnc(NC4COCC4O)nc32)CC1` (some centres unmarked) [Example 179, (1s,4s)-4-(8-(2-chloro-4,6-difluorophenylamino)-2-(4-hydroxytetrahydrofuran-3-ylamino)-9H-purin-9-yl)cyclohexanecarboxamide] cannot be ordered by IC50: greater than 1000 nM for the first, greater than 1000 nM for the second.

Compared with `NC(=O)[C@H]1CC[C@@H](n2c(Nc3c(Cl)cc(Cl)cc3Cl)nc3cnc(NC4COCC4O)nc32)CC1` (some centres unmarked) [Example 181, (1s,4s)-4-(2-(4-hydroxytetrahydrofuran-3-ylamino)-8-(2,4,6-trichlorophenylamino)-9H-purin-9-yl)cyclohexanecarboxamide], `NC(=O)[C@H]1CC[C@@H](n2c(Nc3c(F)cc(Cl)cc3Cl)nc3cnc(NC4COCC4O)nc32)CC1` (some centres unmarked) [Example 182, (1s,4s)-4-(8-(2,4-dichloro-6-fluorophenylamino)-2-(4-hydroxytetrahydrofuran-3-ylamino)-9H-purin-9-yl)cyclohexanecarboxamide] is higher in IC50: 500 to 1000 nM for the first, greater than 1000 nM for the second. The first is the more potent here.

`NC(=O)[C@H]1CC[C@@H](n2c(Nc3c(Cl)cc(F)cc3Cl)nc3cnc(NC4COCC4O)nc32)CC1` (some centres unmarked) [Example 183, (1s,4s)-4-(8-(2,6-dichloro-4-fluorophenylamino)-2-(4-hydroxytetrahydrofuran-3-ylamino)-9H-purin-9-yl)cyclohexanecarboxamide] and `NC(=O)[C@H]1CC[C@@H](n2c(Nc3c(F)cc(Cl)cc3F)nc3cnc(NC4COCC4O)nc32)CC1` (some centres unmarked) [Example 184, (1s,4s)-4-(8-(4-chloro-2,6-difluorophenylamino)-2-(4-hydroxytetrahydrofuran-3-ylamino)-9H-purin-9-yl)cyclohexanecarboxamide] cannot be ordered by IC50: greater than 1000 nM for the first, greater than 1000 nM for the second.

With `NC(=O)[C@H]1CC[C@@H](n2c(Nc3c(F)cc(Cl)cc3Cl)nc3cnc(NC4CCC(F)(F)CC4)nc32)CC1` [Example 186, (1s,4s)-4-(8-(2,4-dichloro-6-fluorophenylamino)-2-(4,4-difluorocyclohexylamino)-9H-purin-9-yl)cyclohexanecarboxamide] the IC50 was less than 250 nM.
